Patent publication US20060257322A1, “Pharmaceutical agents that contain fluoroalkyl-containing metal complexes and epothilones” (priority 2005, published 2006)
Where “and” joins values, the source holds several entries; their conditions need not be identical. Equal values may be shown once. Read-outs that look alike come from different tables or passages of the source.

How the values were obtained:
[1] = assay type: in vivo, hairless mice; conditions: for Relative animal weights: day 0 (about 30-35 g) normalized to 1
Procedure: (§1) A549 lung tumors were induced in hairless mice (4×10^6 cells/30 μl of full medium). Animal weights and tumor surface areas/volumes were determined, and in this case, the tumor surface area or the tumor volume (based on an ellipsoid of revolution) was calculated. Length and width of the tumor were measured with vernier calipers. After reaching the size of a pea, the treatment was begun.
(§2) • (a) 20 mmol of Gd/l of the Gd complex compound as mentioned in Example 1 or 3 (as a comparison solution=Blank reading) • (b) 1.5 mmol/l of the epothilone as mentioned in Example 1 or 3, in aqueous hydroxypropyl-β-cyclodextrin solution (prior art) (For the production of formulations in the prior art, see WO 99/07692 and WO 00/4902 1) • (c) Formulation of Example 1 or 3 (formulation according to the invention) Dosages: • (a) 100 μmol of Gd/kg of body weight • (b) 11 μmol/kg or 18 μmol/kg of body weight • (c) 100 μmol of Gd/kg+11 (or 18) μmol of epothilone/kg of body weight (corresponds to the ratio in the formulation of Example 1 or 3).
(§3) The animal weights and tumor sizes were measured over a period of 20 days after intravenous administration.

A549 lung tumors = assay type: in vivo, hairless mice; conditions: day 0 normalized to 1
Procedure: as §1, §2, §3

[2] = Day 5, 11 μmol of epothilone/kg of body weight i.v. (formulations: plus 100 μmol of Gd/kg)
[3] = Day 5, 18 μmol of epothilone/kg of body weight i.v. (formulations: plus 100 μmol of Gd/kg)
[4] = Day 11, 11 μmol of epothilone/kg of body weight i.v. (formulations: plus 100 μmol of Gd/kg)
[5] = Day 11, 18 μmol of epothilone/kg of body weight i.v. (formulations: plus 100 μmol of Gd/kg)
[6] = Day 15, 11 μmol of epothilone/kg of body weight i.v. (formulations: plus 100 μmol of Gd/kg)
[7] = Day 15, 18 μmol of epothilone/kg of body weight i.v. (formulations: plus 100 μmol of Gd/kg)
[8] = Day 20, 11 μmol of epothilone/kg of body weight i.v. (formulations: plus 100 μmol of Gd/kg)
[9] = Day 20, 18 μmol of epothilone/kg of body weight i.v. (formulations: plus 100 μmol of Gd/kg)
[10] = first days after substance administration, 11 μmol of epothilone/kg of body weight i.v.
[11] = first days after substance administration, 18 μmol of epothilone/kg of body weight i.v.

Row | Compound | Relative animal weights (in words) ([1]; mouse, in vivo, iv) | Relative tumor surface area (A549 lung tumors; [2]) | Relative tumor surface area (A549 lung tumors; [3]) | Relative tumor surface area (A549 lung tumors; [4]) | Relative tumor surface area (A549 lung tumors; [5]) | Relative tumor surface area (A549 lung tumors; [6]) | Relative tumor surface area (A549 lung tumors; [7]) | Relative tumor surface area (A549 lung tumors; [8]) | Relative tumor surface area (A549 lung tumors; [9]) | Relative animal weights [1, 2] | Relative animal weights [1, 3] | Relative animal weights [1, 4] | Relative animal weights [1, 5] | Relative animal weights [1, 6] | Relative animal weights [1, 7] | Relative animal weights [1, 8] | Relative animal weights [1, 9] | Relative animal weights (in words) [1, 10] | Relative animal weights (in words) [1, 11]
1 | Cc1nc(/C=C(\Cl)[C@@H]2C[C@@H]3O[C@]3(C)CCC[C@H](C)[C@H](O)[C@@H](C)C(=O)C(C)(C)[C@@H](O)CC(=O)O2)cs1 [Epothilone C, (1S,3S(Z),7S,10R,11S,12S,16R)-7,11-Dihydroxy-3-(1-chloro-2-(2-methyl-4-thiazolyl)ethenyl)-8,8,10,12,16-pentamethyl-4,17-dioxabicyclo[14.1.0]heptadecane-5,9-dione] | small weight loss | 1.1 ± 0.1 | 1.1 ± 0.1 | 1.4 ± 0.3 | 1.3 ± 0.3 | 1.5 ± 0.3 | 1.6 ± 0.3 | 1.5 ± 0.2 | 1.5 ± 0.2 |  |  |  |  |  |  |  |  |  | 
2 | C=CC[C@H]1C(=O)C(C)(C)[C@@H](O)CC(=O)O[C@H](c2ccc3sc(C)nc3c2)C[C@@H]2O[C@]2(C)CCC[C@H](C)[C@@H]1O [Epothilone F, (1S,3S,7S,10R,11S,12S,16R)-7,11-Dihydroxy-3-(2-methylbenzothiazol-5-yl)-10-(prop-2-en-1-yl)-8,8,12,16-tetramethyl-4,17-dioxabicyclo[14.1.0]heptadecane-5,9-dione] |  | 1.1 ± 0.1 | 1.1 ± 0.1 | 1.3 ± 0.2 | 1.2 ± 0.2 | 1.5 ± 0.3 | 1.4 ± 0.1 | 1.5 ± 0.4 | 1.5 ± 0.2 | 0.94 | 0.92 | 0.97 | 0.93 | 0.97 | 0.97 | 0.96 | 0.99 | small weight loss | small weight loss
3 | CC[C@H]1C(=O)C(C)(C)[C@@H](O)CC(=O)O[C@H](/C(F)=C/c2ccccn2)C/C=C(/C)CCC[C@H](C)[C@@H]1O [Epothilone G, 4S,7R,8S,9S,13(Z),16S(Z)-4,8-Dihydroxy-16-(1-fluoro-2-(2-pyridyl)ethenyl)-7-ethyl-1-oxa-5,5,9,13-tetramethyl-cyclohexadec-13-ene-2,6-dione] |  | 1.1 ± 0.1 | 1.1 ± 0.1 | 1.3 ± 0.1 | 1.3 ± 0.4 | 1.5 ± 0.3 | 1.5 ± 0.3 | 1.6 ± 0.2 | 1.6 ± 0.2 | 0.94 | 0.945 | 0.97 | 0.97 | 0.95 | 0.97 | 0.96 | 0.98 | small weight loss | small weight loss
4 | C#CCC[C@H]1C(=O)C(C)(C)[C@@H](O)CC(=O)O[C@H](/C(C)=C/c2ccccn2)C/C=C(/C)CCC[C@H](C)[C@@H]1O [Epothilone I, (4S,7R,8S,9S,13(Z),16S(E))-4,8-Dihydroxy-16-(1-methyl-2-(2-pyridyl)ethenyl)-1-oxa-5,5,9,13-tetramethyl-7-(but-3-in-1-yl)-cyclohexadec-13-ene-2,6-dione] |  | 1.2 ± 0.1 |  | 1.3 ± 0.3 |  | 1.4 ± 0.3 |  | 1.5 ± 0.1 |  | 0.93 |  | 0.97 |  | 0.97 |  | 0.98 |  | small weight loss | 
5 | C=CC[C@H]1C(=O)C(C)(C)[C@@H](O)CC(=O)O[C@H](/C(C)=C/c2csc(C)n2)C/C=C(/C)CCC[C@H](C)[C@@H]1O [Epothilone K, (4S,7R,8S,9S,13(Z),16S(E))-4,8-Dihydroxy-16-(1-methyl-2-(2-methylthiazol-4-yl)ethenyl)-1-oxa-5,5,9,13-tetramethyl-7-(prop-2-en-1-yl)-cyclohexadec-13-ene-2,6-dione] | small weight loss |  | 1.1 ± 0.1 |  | 1.3 ± 0.3 and 1.3 ± 0.1 |  | 1.5 ± 0.2 |  | 1.6 ± 0.1 and 1.5 ± 0.2 |  |  |  |  |  |  |  |  |  | 
6 | C#CC[C@H]1C(=O)C(C)(C)[C@@H](O)CC(=O)O[C@H](/C(F)=C/c2csc(C)n2)C/C=C(/C)CCC[C@H](C)[C@@H]1O [Epothilone L, (4S,7R,8S,9S,13(Z),16S(Z))-4,8-Dihydroxy-16-(1-fluoro-2-(2-methylthiazol-4-yl)ethenyl)-7-(prop-2-in-1-yl)-1-oxa-5,5,9,13-tetramethyl-cyclohexadec-13-ene-2,6-dione] |  | 1.1 ± 0.1 | 1.1 ± 0.1 | 1.3 ± 0.1 | 1.3 ± 0.2 | 1.5 ± 0.2 | 1.5 ± 0.2 | 1.5 ± 0.2 | 1.5 ± 0.1 | 0.93 | 0.94 | 0.96 | 0.95 | 0.97 | 0.97 | 0.98 | 0.96 | small weight loss | small weight loss
7 | C#CC[C@H]1C(=O)C(C)(C)[C@@H](O)CC(=O)O[C@H](/C(F)=C/c2coc(C)n2)C/C=C(/C)CCC[C@H](C)[C@@H]1O [Epothilone N, (4S,7R,8S,9S,13(Z),16S(Z))-4,8-Dihydroxy-16-(1-fluoro-2-(2-methyloxazol-4-yl)ethenyl)-7-(prop-2-in-1-yl)-1-oxa-5,5,9,13-tetramethyl-cyclohexadec-13-ene-2,6-dione] |  | 1.1 ± 0.1 |  | 1.2 ± 0.2 |  | 1.5 ± 0.3 |  | 1.6 ± 0.4 |  | 0.94 |  | 0.97 |  | 0.98 |  | 0.96 |  | small weight loss | 
